{"source": "patent US12371748B2", "about": "“Genetic markers for predicting responsiveness to therapy with HDL-raising or HDL mimicking agent” (Hoffmann-La Roche Inc., priority 2014, dated 2025)", "tested_on": "patients recently hospitalized for an Acute Coronary Syndrome (ACS)", "assay": "dal-OUTCOMES pharmacogenomic study: cardiovascular events by ADCY9 genotype (Cox proportional hazards)", "format": "in vivo, human", "design": "key to Responsiveness to treatment: NR = non-responsive; PR = partially responsive; R = responsive", "conditions": "for Hazard ratio (dal vs placebo): time to events; for HR, dal-OUTCOMES: per copy of minor allele", "method": "Dal-OUTCOMES trial (NC20971) was a double blind, randomized, placebo-controlled, parallel group, multi-center, phase III study to assess the safety and efficacy of the CETP inhibitor dalcetrapib in patients recently hospitalized for an Acute Coronary Syndrome (ACS). At time of the interim analysis the study included 15871 randomized patients, distributed over two treatment arms: placebo (7933 patients) and dalcetrapib (600 mg daily; 7938 patients). […] The dal-OUTCOMES study details can be found in G. Schwartz et al., N. Engl. J. Med. 367; 22, 2012.\ndal-Outcomes patients were recruited 4 to 12 weeks following hospitalization for acute coronary syndrome characterized by elevated cardiac biomarkers, with symptoms of acute myocardial ischemia, ischemic electrocardiographic abnormalities that were new or presumed to be new, or loss of viable myocardium on imaging. Patients without elevated cardiac biomarkers were eligible to participate if symptoms of acute myocardial ischemia were accompanied by electrocardiographic changes that were new or presumed to be new and by additional evidence of obstructive coronary disease. (Schwartz G G et al. Am Heart J 2009; 158:896-901 e3).\nAll patients were following individualized programs to target LDL cholesterol levels of 100 mg per deciliter (2.6 mmol per liter) or lower by statin if tolerated and diet. No specific statin agent was specified, and patients were not excluded based on LDL cholesterol values. Patients with serum triglyceride levels of 400 mg per deciliter (4.5 mmol per liter) or higher were excluded. (Schwartz G G et al. N Engl J Med 2012; 367:2089-99) Eligible participants to the dal-Outcomes trial entered a single-blind placebo run-in period of approximately 4 to 6 weeks to allow for patients to stabilise and for completion of planned revascularisation procedures. At the end of the run-in period, eligible patients in stable condition were randomised in a 1:1 ratio to 600 mg of dalcetrapib or placebo on top of evidence-based medical care for acute coronary syndrome. Cardiovascular events were adjudicated by an independent clinical endpoint committee. For the pharmacogenomics study, 6338 patients were recruited from April 2008 through July 2010 at 461 sites in 14 countries and provided written informed consent to participate to the genetic study of the dal-OUTCOMES trial. DNA was extracted from whole blood. Following genomic data cleanup, samples from 5749 Caucasian patients were used for the discovery genome-wide association study (GWAS).\nThe Illumina Infinium HumanOmni2.5Exome-8v1_A BeadChip including 2,567,845 genetic variants (Illumina, San Diego, California) was used for the discovery GWAS of 5749 Caucasian participants to the dal-OUTCOMES study. The chromosome 16 region including 5 genes upstream and downstream of the adenylate cyclase type 9 (ADCY9) gene (CHR16: 3,400,000-4,600,000) was imputed using IMPUTE2, providing 17,764 variants for analysis with an average completion rate of 99.76%. A Sequenom panel was used for the confirmation of imputed single nucleotide polymorphisms (SNPs) in the ADCY9 gene identified in dal-OUTCOMES and were tested in the dal-PLAQUE-2 study, including 20 SNPs with P values<0.05 from the discovery GWAS.\nGenome-wide association study (GWAS)—Genome-wide genotyping was performed using 200 ng of genomic DNA in GLP-environment at the Beaulieu-Saucier Pharmacogenomics Centre (Montreal, Canada). The Illumina Infinium HumanOmni2.5Exome-8v1_A BeadChip (Illumina, San Diego, CA) including 2,567,845 genomic markers was used and processed according to the manufacturer's specifications. This chip includes over 200,000 exome variants identified through the Exome Chip Consortium. The remaining BeadChip content is a mix of rare and common SNPs from the 1000 Genome Project designed to be maximally informative for diverse world populations. Each BeadChip was scanned and analyzed using the Illumina iScan Reader. […]"}
{"smiles": "CCC(CC)CC1(C(=O)Nc2ccccc2SC(=O)C(C)C)CCCCC1", "note": "[dalcetrapib, thioisobutyric acid S-(2-{[1-(2-ethyl-butyl)-cyclohexanecarbonyl]-amino}-phenyl) ester]", "values": [{"measurement": "Responsiveness to treatment", "setting": "rs8061182 CC", "result": "NR"}, {"measurement": "Hazard ratio (dal vs placebo)", "setting": "rs8061182 CC", "result": 1.52}, {"measurement": "Responsiveness to treatment", "setting": "rs8061182 CT", "result": "PR"}, {"measurement": "Hazard ratio (dal vs placebo)", "setting": "rs8061182 CT", "result": 0.99}, {"measurement": "Responsiveness to treatment", "setting": "rs8061182 TT", "result": "R"}, {"measurement": "Hazard ratio (dal vs placebo)", "setting": "rs8061182 TT", "result": 0.815}, {"measurement": "HR, dal-OUTCOMES", "setting": "rs11647778, Cox additive genetic model", "result": 0.678}, {"measurement": "Responsiveness to treatment", "setting": "rs11647778 CC", "result": "R"}, {"measurement": "Hazard ratio (dal vs placebo)", "setting": "rs11647778 CC", "result": 0.691}, {"measurement": "Responsiveness to treatment", "setting": "rs11647778 CG", "result": "PR"}, {"measurement": "Hazard ratio (dal vs placebo)", "setting": "rs11647778 CG", "result": 0.966}, {"measurement": "Responsiveness to treatment", "setting": "rs11647778 GG", "result": "NR"}, {"measurement": "Hazard ratio (dal vs placebo)", "setting": "rs11647778 GG", "result": 1.300}, {"measurement": "HR, dal-OUTCOMES", "setting": "rs11647828, Cox additive genetic model", "result": 0.696}, {"measurement": "Responsiveness to treatment", "setting": "rs11647828 CC", "result": "R"}, {"measurement": "Hazard ratio (dal vs placebo)", "setting": "rs11647828 CC", "result": 0.647}, {"measurement": "Responsiveness to treatment", "setting": "rs11647828 CT", "result": "PR"}, {"measurement": "Hazard ratio (dal vs placebo)", "setting": "rs11647828 CT", "result": 0.963}, {"measurement": "Responsiveness to treatment", "setting": "rs11647828 TT", "result": "NR"}, {"measurement": "Hazard ratio (dal vs placebo)", "setting": "rs11647828 TT", "result": 1.315}, {"measurement": "HR, dal-OUTCOMES", "setting": "rs12595857, Cox additive genetic model", "result": 0.677}, {"measurement": "Responsiveness to treatment", "setting": "rs12595857 AA", "result": "NR"}, {"measurement": "Hazard ratio (dal vs placebo)", "setting": "rs12595857 AA", "result": 1.255}, {"measurement": "Responsiveness to treatment", "setting": "rs12595857 AG", "result": "PR"}, {"measurement": "Hazard ratio (dal vs placebo)", "setting": "rs12595857 AG", "result": 0.954}, {"measurement": "Responsiveness to treatment", "setting": "rs12595857 GG", "result": "R"}, {"measurement": "Hazard ratio (dal vs placebo)", "setting": "rs12595857 GG", "result": 0.719}, {"measurement": "HR, dal-OUTCOMES", "setting": "rs12599911, Cox additive genetic model", "result": 0.674}, {"measurement": "Responsiveness to treatment", "setting": "rs12599911 GG", "result": "R"}, {"measurement": "Hazard ratio (dal vs placebo)", "setting": "rs12599911 GG", "result": 0.672}, {"measurement": "Responsiveness to treatment", "setting": "rs12599911 GT", "result": "PR"}, {"measurement": "Hazard ratio (dal vs placebo)", "setting": "rs12599911 GT", "result": 0.982}, {"measurement": "Responsiveness to treatment", "setting": "rs12599911 TT", "result": "NR"}, {"measurement": "Hazard ratio (dal vs placebo)", "setting": "rs12599911 TT", "result": 1.244}, {"measurement": "HR, dal-OUTCOMES", "setting": "rs12920508, Cox additive genetic model", "result": 0.669}, {"measurement": "Responsiveness to treatment", "setting": "rs12920508 CC", "result": "NR"}, {"measurement": "Hazard ratio (dal vs placebo)", "setting": "rs12920508 CC", "result": 1.205}, {"measurement": "Responsiveness to treatment", "setting": "rs12920508 CG", "result": "PR"}, {"measurement": "Hazard ratio (dal vs placebo)", "setting": "rs12920508 CG", "result": 0.946}, {"measurement": "Responsiveness to treatment", "setting": "rs12920508 GG", "result": "R"}, {"measurement": "Hazard ratio (dal vs placebo)", "setting": "rs12920508 GG", "result": 0.676}, {"measurement": "HR, dal-OUTCOMES", "setting": "rs12935810, Cox additive genetic model", "result": 1.377}, {"measurement": "Responsiveness to treatment", "setting": "rs12935810 AA", "result": "NR"}, {"measurement": "Hazard ratio (dal vs placebo)", "setting": "rs12935810 AA", "result": 1.260}, {"measurement": "Responsiveness to treatment", "setting": "rs12935810 AG", "result": "NR"}, {"measurement": "Hazard ratio (dal vs placebo)", "setting": "rs12935810 AG", "result": 1.043}, {"measurement": "Responsiveness to treatment", "setting": "rs12935810 GG", "result": "R"}, {"measurement": "Hazard ratio (dal vs placebo)", "setting": "rs12935810 GG", "result": 0.796}, {"measurement": "HR, dal-OUTCOMES", "setting": "rs13337675, Cox additive genetic model", "result": 0.834}, {"measurement": "Responsiveness to treatment", "setting": "rs13337675 AA", "result": "NR"}, {"measurement": "Hazard ratio (dal vs placebo)", "setting": "rs13337675 AA", "result": 1.070}, {"measurement": "Responsiveness to treatment", "setting": "rs13337675 AG", "result": "PR"}, {"measurement": "Hazard ratio (dal vs placebo)", "setting": "rs13337675 AG", "result": 0.904}, {"measurement": "Responsiveness to treatment", "setting": "rs13337675 GG", "result": "PR"}, {"measurement": "Hazard ratio (dal vs placebo)", "setting": "rs13337675 GG", "result": 1.034}, {"measurement": "HR, dal-OUTCOMES", "setting": "rs17136707, Cox additive genetic model", "result": 0.594}, {"measurement": "Responsiveness to treatment", "setting": "rs17136707 CC", "result": "R"}, {"measurement": "Hazard ratio (dal vs placebo)", "setting": "rs17136707 CC", "result": 0.552}, {"measurement": "Responsiveness to treatment", "setting": "rs17136707 CT", "result": "PR"}, {"measurement": "Hazard ratio (dal vs placebo)", "setting": "rs17136707 CT", "result": 0.835}, {"measurement": "Responsiveness to treatment", "setting": "rs17136707 TT", "result": "NR"}, {"measurement": "Hazard ratio (dal vs placebo)", "setting": "rs17136707 TT", "result": 1.058}, {"measurement": "HR, dal-OUTCOMES", "setting": "rs74702385, Cox additive genetic model", "result": 0.599}, {"measurement": "Responsiveness to treatment", "setting": "rs74702385 CC", "result": "NR"}, {"measurement": "Hazard ratio (dal vs placebo)", "setting": "rs74702385 CC", "result": 1.053}, {"measurement": "Responsiveness to treatment", "setting": "rs74702385 CT", "result": "R"}, {"measurement": "Hazard ratio (dal vs placebo)", "setting": "rs74702385 CT", "result": 0.854}, {"measurement": "Responsiveness to treatment", "setting": "rs74702385 TT", "result": "R"}, {"measurement": "Hazard ratio (dal vs placebo)", "setting": "rs74702385 TT", "result": 0.348}, {"measurement": "HR, dal-OUTCOMES", "setting": "rs111590482, Cox additive genetic model", "result": 0.606}, {"measurement": "Responsiveness to treatment", "setting": "rs111590482 CC", "result": "R"}, {"measurement": "Hazard ratio (dal vs placebo)", "setting": "rs111590482 CC", "result": 0.333}, {"measurement": "Responsiveness to treatment", "setting": "rs111590482 CT", "result": "R"}, {"measurement": "Hazard ratio (dal vs placebo)", "setting": "rs111590482 CT", "result": 0.856}, {"measurement": "Responsiveness to treatment", "setting": "rs111590482 TT", "result": "NR"}, {"measurement": "Hazard ratio (dal vs placebo)", "setting": "rs111590482 TT", "result": 1.054}, {"measurement": "event rate in the primary efficacy endpoint, dalcetrapib arm compared to placebo arm", "setting": "whole study population, 600 mg daily, interim analysis", "result": "no evidence of reduction of the event rate"}, {"measurement": "HR for cardiovascular events, AA compared to reference GG homozygotes at rs1967309", "setting": "within dalcetrapib arm", "result": 0.40}, {"measurement": "HR for cardiovascular events, AG compared to reference GG homozygotes at rs1967309", "setting": "within dalcetrapib arm", "result": 0.68}]}
